# Entries after “also recorded” stand apart in the source; their conditions may differ.
# Tests used:
# [1] = tested on: human GABAARs (α1β2 and α1β2γ2); assay type: cell-based; conditions: for Ave Norm FLIPR Score / FLIPR Results: compound at 20 uM then 5 uM GABA; for Ave Norm FLIPR Score: DMSO = 1; for FLIPR Results: Positive/Negative; for GABAAR PAM activity in FLIPR, in words: in the presence of GABA
# Excerpt: To determine if these compounds targeted human GABAARs, we tested them in a fluorescent imaging plate reader (FLIPR) assay on HEK293 cells transfected with α1β2 and α1β2γ2 human GABAAR subtypes. […]. […] While some of the compounds appeared to function in this assay as negative allosteric modulators (NAMs), reductions in fluorescence were likely due to toxicity-induced cell loss (Fig. 2f, Supplementary Table 5).
# We used the FLIPR system (Molecular Devices) to quantify GABA-evoked activity of human GABAARs. We chose a membrane potential dye (Molecular Devices) to measure changes in membrane potentials and stably transfected HEK293 cells that expressed α1, β2 and γ2. Since we observed an increase in GABA-evoked responses when transfected with γ2 transiently, we describe the cells as having a low level of γ-subunit expression, indicating heterogeneity of GABAAR compositions in the cell (α1β2 or α1β2γ2). To assay for direct agonists, fluorescence was subtracted pre- and post compound addition. To assay for PAMs, cells were treated with compound at 20 uM and then with 5 uM GABA.
# TSPO = TSPO (Rattus norvegicus, UniProt P16257); experiment: In vitro receptor binding (NIMH PDSP)
# Excerpt: (§1) A second approach to target identification was to test the binding affinity of hit compounds against a panel of 43 human and rodent neurotransmitter-related targets. […]. Several hit compounds bound to multiple targets, including compound 7145248, which bound to TSPO, the benzodiazepine receptor (BZP), dopamine transporter, and the alpha 2b receptor (Fig. 3d). The most common targets (binding > 5 compounds) included BZP, sigma 2, HTR2A/B/C, HTR6, and TSPO (Fig. 3c, d). TSPO, previously known as the peripheral benzodiazepine receptor (PBR) (because it was originally identified as a binding site for benzodiazepine anxiolytic drugs), is a mitochondrial protein that supplies cholesterol to steroid-producing enzymes in the brain[36]. TSPO ligands are thought to enhance GABAergic signaling by increasing neurosteroid production. However, some TSPO ligands, including benzodiazepines and zolpidem, also bind to GABAARs directly. […] Of the 14 compounds that bound to TSPO in vitro, 5 compounds potentiated GABAAR in FLIPR assays (Fig. 3c; 2f, green arrowheads).
# (§2) In vitro binding assays and Ki data were generated by the National Institute of Mental Health’s Psychoactive Drug Screening Program (PDSP), contract no. HHSN-271-2008-00025-C (NIMH PDSP), for assay details: http://pdsp.med.unc.edu/PDSP%20Protocols%20II%202013-03-28.pdf. Normalized Ki (npKi) values were generated as follows: npKi = 4 + (−log10 (Ki))[64].
# alpha 2b receptor = target: T1, alpha 2b receptor (Homo sapiens, UniProt P18089); experiment: In vitro receptor binding (NIMH PDSP); conditions: in words; binding counted at Ki < 10 μM
# T1 sequence (P18089 1-450): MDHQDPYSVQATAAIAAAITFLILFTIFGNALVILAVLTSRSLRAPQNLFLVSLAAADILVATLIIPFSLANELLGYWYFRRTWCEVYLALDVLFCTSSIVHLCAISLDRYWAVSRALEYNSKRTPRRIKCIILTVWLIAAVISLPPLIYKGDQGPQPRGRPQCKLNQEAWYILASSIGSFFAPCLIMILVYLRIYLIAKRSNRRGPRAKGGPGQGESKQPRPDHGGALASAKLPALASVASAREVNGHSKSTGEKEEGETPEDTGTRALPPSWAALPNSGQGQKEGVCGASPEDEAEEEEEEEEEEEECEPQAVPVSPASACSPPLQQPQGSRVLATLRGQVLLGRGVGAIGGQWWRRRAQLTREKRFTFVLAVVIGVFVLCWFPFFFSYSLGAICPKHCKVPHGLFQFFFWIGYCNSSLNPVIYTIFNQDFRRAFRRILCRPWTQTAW
# Excerpt: as §1, §2
# [2] = target: benzodiazepine receptor (BZP); experiment: In vitro receptor binding (NIMH PDSP); conditions: in words; binding counted at Ki < 10 μM
# Excerpt: as §1, §2
# dopamine transporter = dopamine transporter (Homo sapiens, UniProt Q01959); experiment: In vitro receptor binding (NIMH PDSP)
# Excerpt: as §1, §2
# zebrafish [3] = assay type: in vivo; conditions: for rescue of behavioral phenotypes by pretreatment with the GABAAR antagonist PTX: violet light and eASR phenotypes, in words
# zebrafish [4] = experiment: Viability of anesthetic treated animals; assay type: in vivo; conditions: zebrafish, in vivo
# Description: (§3) Behavioral assays for pERK. Animals were treated with DMSO or drug for one hour then exposed to a low-volume acoustic stimulus every 10 seconds for 10 minutes. Optovin-treated animals were stimulated with violet light for one second every 10 seconds for 10 minutes. Videos were recorded to measure response to the stimulus and quantified by motion index (MI). Animals were immediately […]
# High speed imaging. Digital video was recorded at 500-1000 frames per second using an Integrated Design Tools NX5-S1 digital camera. Assay duration was 500-1000 ms. Low amplitude tap stimuli was delivered as described above. Videos and still images were assembled using Fiji (imageJ) and […]
# RNAscope. Zebrafish (6 dpf) were fixed using 10% normal buffered formaldehyde overnight at 4 °C, dehydrated in 100% methanol and stored at -20 °C until the assay was performed. Fluorescent in situ hybridization was performed using the RNAScope kit (Advanced Cell Diagnostics)4 with the following modifications: target retrieval was performed using 150 mM Tris pH 9.5 for 15 minutes at 70 °C, washes were performed using 0.2x SSCT (0.01% Tween-20, […], 0.3mM TriNa-citrate, pH7), samples were stored overnight after probe hybridization and 2x 5 minute washes in 5x SSC ([…], pH7) at room temperature before amplification and detection steps were performed the following day.
# Viability. Animals were scored manually to determine viability after anesthetic treatments. 100 animals were scored per condition at 10 minutes, 1 hour and 5 hours post treatment. Strong heart rate was observed under a dissecting scope (Leica M-80) for our viability score. […]
# rdkit function FingerprintMols package written for python. Tanimoto similarity function was used with a […]
# zebrafish [5] = experiment: Cortisol detection assay; assay type: in vivo; conditions: 7-day old larvae treated 1 h; in words
# Description: Cortisol levels were measured in zebrafish. Briefly, 15, 7-day old larvae were treated with the indicated compounds for 1 h. Larvae were anesthetized in ice-cold egg water and then snap-froze in an ethanol/dry ice bath. Larvae were then homogenized in 100 μL of water. Cortisol was extracted from the homogenate with 1 mL of ethyl acetate, the resulting supernatant was collected and the solvent allowed to evaporate. Cortisol was dissolved in 0.2% bovine serum albumin (A7030, Sigma) and frozen at −20 °C. For cortisol ELISA experiments, 96-well plates (VWR International) were treated with cortisol antibody (P01-92-94M-P, EastCoast Bio; […] in PBS) for 16 h at 4 °C, washed, and blocked with 0.1% BSA in PBS. Cortisol samples and cortisol-HRP (P91-92-91H, EastCoast Bio) were incubated at room temperature for 2 h and washed extensively with PBS containing 0.05% Tween-20 (Invitrogen). Detection of HRP was performed using tetramethylbenzidine (TMB: 22166-1, Biomol) and Tetrabutylammonium borohydride (TBABH: 230170-10 G, Sigma). Reaction was stopped using 1 M H2SO4. Absorbance was read at 450 nm in an ELISA plate reader (SpectraMax MS, Molecular Devices).
# zebrafish [6] = assay type: in vivo
# Description: as §3, with “(MI).” for “(MI). Animals were immediately”
# adult zebrafish = experiment: Behavioral responses of adult zebrafish; conditions: in words
# zebrafish [7] = experiment: Optovin-response suppression assay (pain-related); conditions: in words; relative to concentrations that caused eASRs
# Description: To determine if any of the hit compounds may be analgesic, we used optovin-induced motor activity as a potential analgesia-related assay.
# Chain of TSPO (P16257 whole entry): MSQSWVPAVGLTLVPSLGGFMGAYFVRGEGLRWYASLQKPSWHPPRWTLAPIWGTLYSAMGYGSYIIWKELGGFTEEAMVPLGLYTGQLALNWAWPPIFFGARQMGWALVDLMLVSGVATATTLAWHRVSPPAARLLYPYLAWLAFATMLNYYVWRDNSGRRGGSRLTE
# Chain of dopamine transporter (Q01959 whole entry): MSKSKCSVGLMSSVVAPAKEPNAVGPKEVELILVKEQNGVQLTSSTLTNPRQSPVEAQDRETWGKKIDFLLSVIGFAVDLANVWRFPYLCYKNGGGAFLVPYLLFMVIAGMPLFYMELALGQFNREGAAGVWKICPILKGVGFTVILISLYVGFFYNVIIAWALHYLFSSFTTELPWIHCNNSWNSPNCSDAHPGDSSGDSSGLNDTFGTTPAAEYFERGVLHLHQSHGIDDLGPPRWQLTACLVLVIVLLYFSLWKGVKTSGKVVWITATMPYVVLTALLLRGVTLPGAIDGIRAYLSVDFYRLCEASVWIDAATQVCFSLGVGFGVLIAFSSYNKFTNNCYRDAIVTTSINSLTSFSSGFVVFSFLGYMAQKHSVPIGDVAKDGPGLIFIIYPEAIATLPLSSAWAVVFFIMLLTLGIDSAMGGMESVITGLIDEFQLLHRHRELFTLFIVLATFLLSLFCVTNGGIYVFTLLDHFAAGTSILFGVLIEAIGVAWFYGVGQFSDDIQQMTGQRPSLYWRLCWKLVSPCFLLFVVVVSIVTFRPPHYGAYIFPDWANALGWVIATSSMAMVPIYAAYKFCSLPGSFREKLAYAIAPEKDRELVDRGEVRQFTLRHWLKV
Compound,Ave Norm FLIPR Score [1],binding (TSPO),binding (alpha 2b receptor),binding [2],binding (dopamine transporter),eASRs at higher concentration (zebrafish [3]; 50 µM compared to 6 µM),"Average phenoscore of etomidate-treated positive controls (zebrafish [3]; etomidate 6.5 uM, versus DMSO 0.2)","percent animals responding (startle frequency) (zebrafish [3]; etomidate 6.25 µΜ, dampened solenoid stimulus, 100 animals, controls 2%) [%]",rescue of behavioral phenotypes by pretreatment with the GABAAR antagonist PTX (zebrafish [3]),FLIPR Results [1],"GABAAR PAM activity in FLIPR, in words [1]",toxicity at the concentrations that caused eASRs (zebrafish [4]),cortisol levels (zebrafish [5]),pERK labeling (neuronal activity) (zebrafish [6]; in words),"pERK labeling in the caudal hindbrain at higher concentration (zebrafish [6]; zebrafish, in vivo)",violet light response and acoustic startle in adult animals (adult zebrafish),optovin response (optovin-induced motor activity) (zebrafish [7]),"phenocopy (zebrafish [3]; […], positive/negative)"
O=C(NCc1cccc(Oc2ccccc2)c1)C(=O)c1c[nH]c2ccccc12 [compound 7145248],-24.79,bound,bound,bound,bound,,,,,,,,,,,,,
CCOC(=O)c1cncn1[C@H](C)c1ccccc1 [etomidate],50.67,,,,,suppressed eASRs,0.71,85,rescued,Positive,increased fluorescence in the presence of GABA,Neither etomidate or propofol was toxic,lowered cortisol levels,broadly reduced,decreased pERK labeling in the caudal hindbrain,"reducing the violet light response, while increasing acoustic startle",suppressed the optovin response,
CCc1cc2c(=O)c(-c3ccccc3Cl)c(C)oc2cc1OC [compound 7013338],,,,,,,,,partially rescued,Positive,potentiated GABAARs significantly greater than positive controls; also recorded: significantly greater than the positive controls; also recorded: the most effective hit compound in the FLIPR assays; also recorded: activated human GABAARs more than any other hit compound,,,,,"reducing the violet light response, while increasing acoustic startle",did not suppress the optovin response,positive

# Reference: publication PMC6733874, “Zebrafish behavioural profiling identifies GABA and serotonin receptor ligands related to sedation and paradoxical excitation” (Nature Communications, 2019)
